According to patent US20170105971A1, “METHODS AND COMPOUNDS FOR THE TREATMENT OF BONE LOSS AND/OR PAIN” (priority 2015, published 2017):
“Also recorded” adds a separate entry of the source. Read-outs that look alike come from different tables or passages of the source.

What was measured:
ACPA-stimulated OCs [1] = experiment: ACPA-stimulated osteoclastogenesis with inhibitor, TRAP staining; format: cell-based, human
From the text: (§1) The medium was exchanged every three days.
(§2) IL-8 was neutralized in the cell supernatants using an anti-IL-8/CXCL8 neutralizing antibody (clone MAB208, R&D systems, UK). PAD activity was inhibited using a pan-PAD inhibitor Cl-amidine (Cayman chemical, Michigan, USA), either at the initiation of the OC cultures or three days before the end of culturing.

human neutrophils = conditions: cited from earlier work
[2] = rat; cited from earlier work
mouse neutrophils = conditions: cited from earlier work
PAD4 [3] = target: T1, PAD4 (Homo sapiens, UniProt Q9UM07); parameters: endogenous in cells; host or cells: human neutrophils; conditions: cited from earlier work
Target sequence in this assay (Q9UM07 whole entry): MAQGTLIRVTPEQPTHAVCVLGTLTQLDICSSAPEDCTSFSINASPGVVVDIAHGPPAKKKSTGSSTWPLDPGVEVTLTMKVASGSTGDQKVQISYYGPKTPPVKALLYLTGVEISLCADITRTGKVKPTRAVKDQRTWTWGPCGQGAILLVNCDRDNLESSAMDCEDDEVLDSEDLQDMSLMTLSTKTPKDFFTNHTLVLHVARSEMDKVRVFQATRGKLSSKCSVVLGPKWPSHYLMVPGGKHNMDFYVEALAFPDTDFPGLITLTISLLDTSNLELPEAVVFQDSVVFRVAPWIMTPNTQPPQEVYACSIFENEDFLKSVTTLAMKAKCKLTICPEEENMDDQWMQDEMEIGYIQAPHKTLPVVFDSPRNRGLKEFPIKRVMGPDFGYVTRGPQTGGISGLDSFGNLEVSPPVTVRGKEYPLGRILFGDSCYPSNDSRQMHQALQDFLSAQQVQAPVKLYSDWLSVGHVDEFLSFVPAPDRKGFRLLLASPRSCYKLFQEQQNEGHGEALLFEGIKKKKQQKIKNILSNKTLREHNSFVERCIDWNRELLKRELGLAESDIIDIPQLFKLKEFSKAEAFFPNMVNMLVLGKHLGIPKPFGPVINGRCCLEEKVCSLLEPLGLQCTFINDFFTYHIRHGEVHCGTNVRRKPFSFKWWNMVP

[4] = mouse; cited from earlier work
mice = experiment: ACPA-induced pain (mechanical hypersensitivity) in mice, von Frey filaments; format: in vivo, mouse; conditions: 5 mg/kg s.c. once daily; C03 2 mg i.v.; p<0.01
Method: Starting day 1, the PAD inhibitor 2-2-Chloroacetamide (C0267, Sigma Aldrich) was injected subcutaneously s.c. (in 100 μl saline with 5% DMSO) once daily (5 mg/kg/day) for 10 days.
Withdrawal thresholds of the hind paws were assessed using von Frey filaments as previously described (Bas, D. B. et al., 2012). In brief, the mice were habituated in individual compartments on top of a wire-mesh surface (Ugo Basile) prior to experiment. On test days, mice were given time to acclimatize and then optiHair filaments (Marstock OptiHair) of increasing buckling force (0.5, 1, 2, 4, 8, 16, and 32 mN) were applied to the plantar surface of the paw until the filament bent slightly. A brisk withdrawal of the paw within 2-3 seconds was noted as a positive response. A 50% withdrawal threshold was calculated using the Dixon up-down method (Chaplan, S. R., et al., 1994) and results from both hind paws were averaged and presented as % of baseline values.

PAD4 [5] = target: T1, PAD4; conditions: cited from earlier work
Target sequence in this assay (Q9UM07 whole entry, species assumed): as the sequence (Q9UM07 whole entry) above

Balb/c mice = experiment: ACPA-induced systemic bone loss in mice, micro-CT of tibia; format: in vivo, mouse; conditions: s.c. twice daily 30 mg/kg/day for 6 days from day 6
Method: Animal experiments were conducted using adult male Balb/c (Harlan) 15 weeks of age. Mice were housed in standard cages (3-5 per cage) in a climate controlled environment maintaining a 12-hour light/dark cycle with access to food and water ad libitum. All experiments were approved by the local ethics committee for animal experiments in Sweden. […] Starting day 6, the CXCR2 antagonist reparixin (L-lysin salt, HY-15252, MedChem Express) was injected subcutaneously (s.c. in 100 μl saline) twice daily (30 mg/kg/day) for 6 days. At the end of the study, mice were anesthetized using 4% isoflurane, decapitated and left hind leg removed and post-fixed in 4% PFA until further analysis.
Bone structure was analyzed using a SkyScan 1176 micro-CT (Bruker) with a voxel size of 9 μm. The scanning was conducted at 50 kV/480 ρA with a 0.2 mm aluminum filter. The exposure time was 900 ms. The x-ray projections were obtained at 0.4° intervals with a scanning angular rotation of 180°. The projection images were reconstructed into 3-dimensional images using NRecon software (version 1.6.9.8; Bruker) and analyzed using CTVox software (version 2.7.0; Bruker). Trabecular bone in tibia located 644 μm from the proximal growth plate and extending 100.5 μm was analysed regarding BMD and 3D analysis and a volume of cortical bone in tibia mesasuring 617 μm in length, located in the distal tibia was measured for TMD, using CTAnalyzer software (version 1.14.4.1; Bruker). The 3D structures of each joint were blindly assessed by two observers (T.J. and M.M.).

OCs = experiment: LDH cytotoxicity assay in OC culture supernatants; format: cell-based, human; conditions: OC cultures with PAD inhibitor
Method: (§3) The LDH levels in the cell-free culture supernatants were measured using an LDH cytotoxicity assay kit (Roche Diagnostics Scandinavia AB, Bromma, Sweden) according to the manufacturer's instructions.

[6] = test system: antibody-mediated arthritis; conditions: Willis et al.; cited from earlier work
[7] = test system: collagen-induced arthritis; conditions: Willis et al., cited from earlier work
[8] = test system: RA-derived synovial fibroblasts; experiment: synovial fibroblast in vitro scratch assay (migration index); format: cell-based, human; conditions: PADi at similar doses as in OC cultures
Method: (§4) Synovial fibroblasts were isolated from the synovial tissue of RA patients by enzymatic digestion. The cells were growth at 37° C. in 5% CO2 in Dulbecco's modified Eagle medium (DMEM, Sigma-Aldrich, Stockholm, Sweden) with 10% (v/v) heat-inactivated fatal cow serum (FCS, Sigma-Aldrich, Stockholm, Sweden), 100 U/ml penicillin, 100 μg/ml streptomycin and L-glutamine. The cells at passages 4-8 were used throughout this study. Twenty four-well plates were pre-coated with collagen (50 μg/ml), followed by 1 hour of blocking with 3% BSA (Sigma). A sufficient number of SFs were grown to 80-90% confluence and serum starved for 1-2 hours. The scratches were then made using a P-200 pipette tip. The floating cells were removed by washing with PBS. The cells were incubated with or without PAD inhibitors at the indicated concentration for 48 hours. Light microscope images were taken immediately at 0 and 5 hours after scratching. The images were analyzed using NIH ImageJ. The closure areas were normalized to medium control, and these values represent the migration index.

iDC-derived OCs = experiment: iDC-derived osteoclast culture, TRAP staining (OC numbers); format: cell-based, human; conditions: RANKL and M-CSF
From the text: as §1, §2

[9] = test system: RA-derived synovial fibroblasts; experiment: LDH cytotoxicity assay in synovial fibroblast supernatants; format: cell-based, human; conditions: PADi at similar doses as in OC cultures
Method: as §4, §3

ACPA-stimulated OCs [10] = experiment: ACPA-stimulated OC calcium phosphate resorption with inhibitor; format: cell-based, human; conditions: PADi added from the beginning of the OC cultures
From the text: as §1, §2

Mφ-derived OCs = experiment: Mφ-derived osteoclast culture, TRAP staining (OC numbers); format: cell-based, human; conditions: for unstimulated OC differentiation (OC numbers): RANKL and M-CSF, early PAD inhibition (at initiation of OC culture)
[11] = test system: citrullinated targets in mature OCs; experiment: immunohistochemistry of citrullinated targets in mature OCs with PAD inhibitor; format: cell-based, human; conditions: inhibitor added from the beginning of the cultures; mB02 staining
Method: Murinized monoclonal IgG2a ACPAs (D10, B02, C07) and control antibody (E02) were used to investigate the presence of citrullinated proteins during OC maturation. A rabbit polyclonal anti-PAD2 (Cosmo Bio, Tokyo, Japan) and a monoclonal mouse anti-PADI4 (Abcam, Cambridge, UK) antibody were used to investigate the cellular expression of PAD enzymes during OC maturation. Mφ- and iDC-derived OCs were cultured in 8-well glass chamber slides.
Cells at different stages of differentiation were fixed with 2% (vol/vol) formaldehyde (Sigma-Aldrich, Stockholm, Sweden) at 4° C. and stored at −70° C. until use. Following blocking of endogenous peroxidase and avidin-biotin activity, the slides were incubated with primary monoclonal antibodies. HRP conjugated anti-mouse antibody was used as a secondary antibody and developed with 3,3-diaminobenzidene (DAB) for 7 minutes. The slides were counterstained with Mayer's hematoxylin, dehydrated and permanently mounted and viewed using a light microscope (Reichert Polyvar 2 type 302001, Leica).

PAD4 [12] = target: T1, PAD4; conditions: cited from earlier work; remark: listed apart in the source
Target sequence in this assay (Q9UM07 whole entry, species assumed): as the sequence (Q9UM07 whole entry) above

[13] = early PAD inhibition, doses as low as 0.2 μM

Compound: adalimumab
- effect of ACPAs on osteoclastogenesis (ACPA-stimulated OCs [1]; antibody concentrations as high as 10 μg/ml): No such effects

Compound: COc1cc(C(=O)N2CC[C@@H](O)[C@@H](N)C2)cc2nc(-c3cc4ccccc4n3CC3CC3)n(C)c12 [GSK484, [(3S,4R)-3-amino-4-hydroxy-1-piperidinyl][2-[1-(cyclopropylmethyl)-1H-indol-2-yl]-7-methoxy-1-methyl-1H-benzimidazol-5-yl]-methanone]
- formation of neutrophil extracellular traps (human neutrophils): inhibits
- pharmacokinetic profile [2]: favorable
- formation of neutrophil extracellular traps (mouse neutrophils): inhibits
- citrullination of PAD4 target proteins in human neutrophils (PAD4 [3]): blocks
- pharmacokinetic profile [4]: favorable

Compound: NC(=O)CCl [2-Chloroacetamide (2CA), 2-Chloroacetamide]
- pain (mechanical hypersensitivity) induced by ACPA antibody C03 (mice): prevents

Compound: Cn1c(-c2nc3cc(C(=O)N4CCCC(N)C4)ccc3n2C)cc2ccccc21 (stereo not drawn) [GSK-121, (3-amino-1-piperidinyl)[1-methyl-2-(1-methyl-1H-indol-2-yl)-1H-benzimidazol-5-yl]-methanone, 2,2,2-trifluoroacetate]
- IC50 (PAD4 [5]; functional assay, read-out: IC50, inhibition of citrullination of PAD4 target proteins): 3200 nM

Compound: CC(C)Cc1ccc([C@@H](C)C(=O)NS(C)(=O)=O)cc1 [reparixin]
- ACPA-induced change of bone volume fraction (Balb/c mice): reversed
- ACPA-induced change of trabecular bone mineral density (BMD) (Balb/c mice): reversed
- ACPA-induced change of trabecular number (Balb/c mice): reversed

Compound: N=C(CCl)NCCC[C@H](NC(=O)c1ccccc1)C(N)=O [Cl-amidine, N-α-benzoyl-N5-(2-chloro-1-iminoethyl)-L-Orn amide]
- cell death, LDH release in the supernatants (OCs): without inducing cell death; also recorded: without any cytotoxic effect
- effect on antibody-mediated arthritis [6]: no effect
- disease activity in collagen-induced arthritis [7]: decreases disease activity
- bone damage in collagen-induced arthritis ([7]; in the context of lower synovial inflammation): lower bone damage
- ACPA-mediated osteoclastogenesis (OC activation) (ACPA-stimulated OCs [1]; PADi added from the beginning of the cultures): not able to promote OCs activation; also recorded: affects both unstimulated and ACPA-mediate osteoclastogenesis; also recorded: prevented
- ACPA-mediated osteoclastogenesis (ACPA-stimulated OCs [1]; [13]): still able to inhibit; also recorded: inhibits
- ACPA-mediated osteoclastogenesis (ACPA-stimulated OCs [1]; late PAD inhibition (three days before ending the OC cultures), doses as high as 20 μM): affects only ACPA-mediated osteoclastogenesis
- fibroblast migration (migration index) [8]: no changes; also recorded: does not affect
- OC differentiation from iDC (iDC-derived OCs): dose-dependent inhibition
- fibroblast survival (LDH assay) [9]: no changes; also recorded: does not affect
- ACPA-induced calcium phosphate resorption (ACPA-stimulated OCs [10]): prevented
- unstimulated OC differentiation (OC numbers) (Mφ-derived OCs): dose-dependent inhibition; also recorded: dose-dependently inhibited
- unstimulated OC differentiation (OC numbers) (Mφ-derived OCs; listed as PADi): affects both unstimulated and ACPA-mediate osteoclastogenesis
- unstimulated differentiation of OCs (Mφ-derived OCs; [13]): no longer able to affect
- staining intensity of citrullinated targets in OCs after PAD inhibitor treatment [11]: markedly diminished

Compound: (3-amino-1-piperidinyl)[1-methyl-2-(1-methyl-1H-indol-2-yl)-1H-benzimidazol-5-yl]-methanone, 2,2,2-trifluoroacetate [GSK199]
- formation of neutrophil extracellular traps (mouse neutrophils): diminish
- inhibition of citrullination of PAD4 target proteins (PAD4 [5]): can inhibit
- IC50 (PAD4 [12]; binds to the low-calcium form of the enzyme): 200 nM
- selectivity for PAD4 over PAD1-3 (PAD4 [12]): selective for PAD4 over PAD1-3
